We go through 17 compounds from PubChem BioAssay AID248 (DTP/NCI, 2004).

The experiment concerns L1210 leukemia ip in BDF1 mice, survival T/C. The experiment can be described thus: NCI In Vivo Anticancer Drug Screen. Data for tumor model L1210 Leukemia (intraperitoneal) in B6D2F1 (BDF1) mice. The following applies: endpoint: mean survival time, higher = longer survival. In short, it runs like this: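 Tumor was transplanted into mice, which were then dosed with test compound or vehicle alone. Survival was recorded for each group, and the treated figure was expressed relative to the control figure.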

Setting [1] is: dose: 100.0 mg/kg/injection, schedule: Q04DX002 (ip), vehicle: Klucel (hydroxypropylcellulose) (HPC).
Setting [2] is: dose: 200.0 mg/kg/injection, schedule: Q04DX002 (ip), vehicle: Klucel (hydroxypropylcellulose) (HPC).
Setting [3] is: dose: 400.0 mg/kg/injection, schedule: Q04DX002 (ip), vehicle: Klucel (hydroxypropylcellulose) (HPC).
The mark [4] stands for this setting: dose: 100.0 mg/kg/injection, schedule: Q04DX003 (ip), vehicle: saline with Tween-80.
Setting [5] is: dose: 100.0 mg/kg/injection, schedule: Q04DX003 (ip), vehicle: Klucel (hydroxypropylcellulose) (HPC).
Setting [6] is: dose: 100.0 mg/kg/injection, schedule: Q04DX003 (ip), vehicle: other.
The mark [7] stands for this setting: dose: 100.0 mg/kg/injection, schedule: Q01DX001 (ip), vehicle: saline with Tween-80.

Where “and” joins values, the source holds several entries; their conditions need not be identical. Equal entries are not always repeated. Inconclusive results and toxic doses are left out.

For `CC(C)(C)C1=NN=C(C(C)(C)C)CS(=O)C1`, the T/C runs as follows: under setting [1], 90 % of control; under setting [2], 97 % of control; under setting [3], 101 % of control.
With `CC(=O)OC1=C(CC=C(C)C)C(=O)c2ccccc2C1=O`, the T/C reads like this: (dose: 50.0 mg/kg/injection, schedule: Q01DX001 (ip), vehicle: water) 97 % of control; (dose: 100.0 mg/kg/injection, schedule: Q01DX001 (ip), vehicle: water) 95 % of control; (dose: 200.0 mg/kg/injection, schedule: Q01DX001 (ip), vehicle: water) 100 % of control; (dose: 400.0 mg/kg/injection, schedule: Q01DX001 (ip), vehicle: water) 104 % of control.
Turning to `ICC1COCC(CI)O1` (centres undefined), the T/C runs as follows: (dose: 100.0 mg/kg/injection, schedule: Q01DX009 (ip), vehicle: saline with Tween-80) 101 % of control; (dose: 200.0 mg/kg/injection, schedule: Q01DX009 (ip), vehicle: saline with Tween-80) 113 % of control; (dose: 400.0 mg/kg/injection, schedule: Q01DX009 (ip), vehicle: saline with Tween-80) 106 % of control.
Turning to `CC(NC(=O)OCc1ccccc1)C(=O)NC(Cc1ccc(O)cc1)C(=O)OCc1ccccc1` (centres undefined), the T/C is, setting by setting: under setting [4], 97 % of control; (dose: 200.0 mg/kg/injection, schedule: Q04DX003 (ip), vehicle: saline with Tween-80) 90 % of control; (dose: 400.0 mg/kg/injection, schedule: Q04DX003 (ip), vehicle: saline with Tween-80) 93 % of control.
In the case of `O=S(=O)(O)c1ccc(-c2ccc(S(=O)(=O)O)cc2)cc1`, the T/C is, setting by setting: (dose: 88.8 mg/kg/injection, schedule: Q01DX Z (ip), vehicle: methylcellulose (MC)) 98 % of control; (dose: 133.0 mg/kg/injection, schedule: Q01DX Z (ip), vehicle: methylcellulose (MC)) 90 % of control; (dose: 200.0 mg/kg/injection, schedule: Q01DX Z (ip), vehicle: methylcellulose (MC)) 86 % of control.
As for `COc1cc(C2NC(=S)NC2=S)ccc1O` (centres undefined), the T/C is, setting by setting: (dose: 25.0 mg/kg/injection, schedule: Q01DX009 (ip), vehicle: saline with Tween-80) 104 % of control; (dose: 25.0 mg/kg/injection, schedule: Q04DX003 (ip), vehicle: saline with Tween-80) 94 % of control; (dose: 50.0 mg/kg/injection, schedule: Q01DX009 (ip), vehicle: saline with Tween-80) 96 % of control; (dose: 50.0 mg/kg/injection, schedule: Q04DX003 (ip), vehicle: saline with Tween-80) 92 % of control; under setting [4], 94 % of control and 98 % of control.
Take `CC[N+](CC)(CC)CCCCCCCCCC[N+](CC)(CC)CC`: the T/C by setting is: (dose: 0.19 mg/kg/injection, schedule: Q01DX009 (ip), vehicle: water) 100 % of control; (dose: 0.39 mg/kg/injection, schedule: Q01DX009 (ip), vehicle: water) 95 % of control; (dose: 0.78 mg/kg/injection, schedule: Q01DX009 (ip), vehicle: water) 90 % of control; (dose: 0.78 mg/kg/injection, schedule: Q04DX003 (ip), vehicle: saline) 103 % of control.
Take `O=C1CCCC1CN1CCOCC1` (centres undefined): the T/C reads like this: (dose: 100.0 mg/kg/injection, schedule: Q01DX009 (ip), vehicle: saline) 92 % of control; (dose: 200.0 mg/kg/injection, schedule: Q01DX009 (ip), vehicle: saline) 96 % of control; (dose: 400.0 mg/kg/injection, schedule: Q01DX009 (ip), vehicle: saline) 94 % of control.
With `CC(=O)[O][Hg][c]1cc(C)cc([N+](=O)[O-])c1O`, the T/C was 94 % of control (dose: 6.25 mg/kg/injection, schedule: Q01DX009 (ip), vehicle: Klucel (hydroxypropylcellulose) (HPC)); 100 % of control (dose: 12.5 mg/kg/injection, schedule: Q01DX009 (ip), vehicle: Klucel (hydroxypropylcellulose) (HPC)); 100 % of control (dose: 12.5 mg/kg/injection, schedule: Q04DX003 (ip), vehicle: Klucel (hydroxypropylcellulose) (HPC)); 92 % of control (dose: 25.0 mg/kg/injection, schedule: Q01DX009 (ip), vehicle: Klucel (hydroxypropylcellulose) (HPC)); 95 % of control (dose: 25.0 mg/kg/injection, schedule: Q04DX003 (ip), vehicle: Klucel (hydroxypropylcellulose) (HPC)).
As for `O=c1sc2c(s1)CCCC2`, the T/C by setting is: under setting [1], 108 % of control; under setting [2], 101 % of control; under setting [3], 92 % of control.
Take `CC(=O)OCC1OC(OC(C)=O)C(NC(=O)N(C)C(C)=O)C(OC(C)=O)C1OC(C)=O` (centres undefined): the T/C by setting is: under setting [5], 100 % of control; (dose: 200.0 mg/kg/injection, schedule: Q04DX003 (ip), vehicle: Klucel (hydroxypropylcellulose) (HPC)) 100 % of control; (dose: 400.0 mg/kg/injection, schedule: Q04DX003 (ip), vehicle: Klucel (hydroxypropylcellulose) (HPC)) 97 % of control.
On to `c1ccc2c(c1)Cc1nc3ccccc3nc1-2`, for which the T/C is, setting by setting: (dose: 25.0 mg/kg/injection, schedule: Q01DX009 (ip), vehicle: water) 93 % of control; (dose: 50.0 mg/kg/injection, schedule: Q01DX009 (ip), vehicle: water) 91 % of control; (dose: 100.0 mg/kg/injection, schedule: Q01DX009 (ip), vehicle: water) 101 % of control; (dose: 200.0 mg/kg/injection, schedule: Q01DX009 (ip), vehicle: water) 93 % of control; (dose: 400.0 mg/kg/injection, schedule: Q01DX009 (ip), vehicle: water) 96 % of control.
As for `COC(=O)C1(C)CCCC2(C)C3CCC(C(C)C)C(CO)C3C(CO)CC12` (centres undefined), the T/C reads like this: under setting [6], 107 % of control; (dose: 200.0 mg/kg/injection, schedule: Q04DX003 (ip), vehicle: other) 104 % of control; (dose: 400.0 mg/kg/injection, schedule: Q04DX003 (ip), vehicle: other) 107 % of control.
Take `CCC[CH2][Sn]([I])([CH2]C)[CH2]C`: the T/C reads like this: under setting [1], 90 % of control; under setting [3], 101 % of control.
As for `CC1CN=C(c2ccc(NC(=O)NCCCCCCCCCCNC(=O)Nc3ccc(C4=NCC(C)N4)cc3)cc2)N1` (centres undefined), the T/C is 96 % of control (dose: 5.0 mg/kg/injection, schedule: Q01DX015 (ip), vehicle: water); 102 % of control (dose: 10.0 mg/kg/injection, schedule: Q01DX015 (ip), vehicle: water); 103 % of control (dose: 20.0 mg/kg/injection, schedule: Q01DX015 (ip), vehicle: water).
Turning to `Nc1ncnc(N)c1NC(=O)c1cccc(-c2ccccc2)c1`, the T/C runs as follows: under setting [7], 97 % of control; (dose: 200.0 mg/kg/injection, schedule: Q01DX001 (ip), vehicle: saline with Tween-80) 101 % of control; (dose: 400.0 mg/kg/injection, schedule: Q01DX001 (ip), vehicle: saline with Tween-80) 90 % of control.
For `FC(F)(F)c1nc2nc(Cl)c(Cl)nc2[nH]1`, the T/C (dose: 6.25 mg/kg/injection, schedule: Q01DX009 (ip), vehicle: saline) is 99 % of control; the T/C (dose: 12.5 mg/kg/injection, schedule: Q01DX009 (ip), vehicle: saline) was 94 % of control; the T/C (dose: 25.0 mg/kg/injection, schedule: Q01DX001 (ip), vehicle: saline with Tween-80) was 106 % of control; the T/C (dose: 25.0 mg/kg/injection, schedule: Q01DX009 (ip), vehicle: other) is 95 % of control; the T/C (dose: 25.0 mg/kg/injection, schedule: Q01DX009 (ip), vehicle: saline) was 103 % of control; the T/C (dose: 33.0 mg/kg/injection, schedule: Q01DX009 (ip), vehicle: other) was 113 % of control. Also, the T/C was 121 % of control (dose: 44.0 mg/kg/injection, schedule: Q04DX003 (ip), vehicle: other); 94 % of control (dose: 44.0 mg/kg/injection, schedule: Q04DX003 (ip), vehicle: saline sonified); 102 % of control and 103 % of control (dose: 44.0 mg/kg/injection, schedule: Q04DX003 (ip), vehicle: saline with Tween-80); 96 % of control (dose: 50.0 mg/kg/injection, schedule: Q01DX001 (ip), vehicle: saline with Tween-80); 116 % of control (dose: 50.0 mg/kg/injection, schedule: Q01DX009 (ip), vehicle: saline); 122 % of control (dose: 66.0 mg/kg/injection, schedule: Q04DX003 (ip), vehicle: saline sonified). Besides, the T/C by setting is: (dose: 66.0 mg/kg/injection, schedule: Q04DX003 (ip), vehicle: saline with Tween-80) 109 % of control; under setting [7], 110 % of control; under setting [5], 154 % of control; under setting [6], 176 % of control; (dose: 100.0 mg/kg/injection, schedule: Q04DX003 (ip), vehicle: saline sonified) 159 % of control; under setting [4], 153 % of control and 156 % of control. For the same compound, for the setting “dose: 150.0 mg/kg/injection, schedule: Q04DX003 (ip), vehicle: saline with Tween-80”, the T/C was 102 % of control.
